Read-outs that look alike come from different tables or passages of the source.
Key:
[1] = molecular target: σ2 receptor (Homo sapiens, UniProt Q5BJF2); assay: σ2 receptor binding at 10 μM
Protocol: (§1) All derivatives were evaluated for binding to the NR2B site and other neuro-targets. Table 1 provides the structures of the derivatives, molecular weight, calculated Log D values, the structure-activity relationship, and binding data.

[2] = molecular target: NR2B site (Homo sapiens, UniProt Q05586+Q13224); assay: binding to the NR2B site (Ki, automatic and manual); settings: for affinity for NR2B: stated in words
Protocol: as §1

[3] = molecular target: σ1 receptor (Homo sapiens, UniProt Q99720); assay: σ1 receptor binding at 10 μM
Protocol: as §1

[4] = molecular target: NR2B subunits in NMDA receptors (Rattus norvegicus, UniProt P35439+Q00960); assay: PET imaging of brain in rats (baseline, preblock, displacement); settings: for effect of pretreatment on brain radioactivity uptake / displacement of radioligand: radioligand [^11C]NR2B-SMe; for displacement of radioligand: given at 15 min after radioligand, over 90 min; for brain radioactivity uptake / washout of brain radioactivity: rats at baseline; for brain radioactivity uptake: i.v. radioligand, at 5 minutes; for washout of brain radioactivity: over 90 minutes
Protocol: Displacement studies where NR2B-SMe or eliprodil was given at 15 min after radioligand were also performed.

[5] = test system: NR2B subunits in NMDA receptors; assay: Brain PET imaging (VT/fP) in monkey (baseline, Co101244 block, self-block); format: in vivo
From the text: Table 2 provides the normalized total volume of distribution (VT/fP) (ml/cm^3) for whole brain and specific regions of the brain at baseline, Co101244 (1-[2-(4-hydroxyphenoxy)ethyl]-4-[(4-methylphenyl)methyl]-4-piperidinol) block and self-block.

[6] = test system: NR2B subunits in NMDA receptors; assay: as above; format: in vivo; remark: listed apart in the source
[7] = automatic, read-out: Ki (nM), automatic
[8] = manual, read-out: Ki (nM), manual
[9] = rats, 0.01-3 mg/kg, i.v. at 15 min before radioligand injection

Sequence of NR2B subunits in NMDA receptors (Rattus norvegicus, UniProt P35439+Q00960) (Q00960 27-1482, other chains not shown): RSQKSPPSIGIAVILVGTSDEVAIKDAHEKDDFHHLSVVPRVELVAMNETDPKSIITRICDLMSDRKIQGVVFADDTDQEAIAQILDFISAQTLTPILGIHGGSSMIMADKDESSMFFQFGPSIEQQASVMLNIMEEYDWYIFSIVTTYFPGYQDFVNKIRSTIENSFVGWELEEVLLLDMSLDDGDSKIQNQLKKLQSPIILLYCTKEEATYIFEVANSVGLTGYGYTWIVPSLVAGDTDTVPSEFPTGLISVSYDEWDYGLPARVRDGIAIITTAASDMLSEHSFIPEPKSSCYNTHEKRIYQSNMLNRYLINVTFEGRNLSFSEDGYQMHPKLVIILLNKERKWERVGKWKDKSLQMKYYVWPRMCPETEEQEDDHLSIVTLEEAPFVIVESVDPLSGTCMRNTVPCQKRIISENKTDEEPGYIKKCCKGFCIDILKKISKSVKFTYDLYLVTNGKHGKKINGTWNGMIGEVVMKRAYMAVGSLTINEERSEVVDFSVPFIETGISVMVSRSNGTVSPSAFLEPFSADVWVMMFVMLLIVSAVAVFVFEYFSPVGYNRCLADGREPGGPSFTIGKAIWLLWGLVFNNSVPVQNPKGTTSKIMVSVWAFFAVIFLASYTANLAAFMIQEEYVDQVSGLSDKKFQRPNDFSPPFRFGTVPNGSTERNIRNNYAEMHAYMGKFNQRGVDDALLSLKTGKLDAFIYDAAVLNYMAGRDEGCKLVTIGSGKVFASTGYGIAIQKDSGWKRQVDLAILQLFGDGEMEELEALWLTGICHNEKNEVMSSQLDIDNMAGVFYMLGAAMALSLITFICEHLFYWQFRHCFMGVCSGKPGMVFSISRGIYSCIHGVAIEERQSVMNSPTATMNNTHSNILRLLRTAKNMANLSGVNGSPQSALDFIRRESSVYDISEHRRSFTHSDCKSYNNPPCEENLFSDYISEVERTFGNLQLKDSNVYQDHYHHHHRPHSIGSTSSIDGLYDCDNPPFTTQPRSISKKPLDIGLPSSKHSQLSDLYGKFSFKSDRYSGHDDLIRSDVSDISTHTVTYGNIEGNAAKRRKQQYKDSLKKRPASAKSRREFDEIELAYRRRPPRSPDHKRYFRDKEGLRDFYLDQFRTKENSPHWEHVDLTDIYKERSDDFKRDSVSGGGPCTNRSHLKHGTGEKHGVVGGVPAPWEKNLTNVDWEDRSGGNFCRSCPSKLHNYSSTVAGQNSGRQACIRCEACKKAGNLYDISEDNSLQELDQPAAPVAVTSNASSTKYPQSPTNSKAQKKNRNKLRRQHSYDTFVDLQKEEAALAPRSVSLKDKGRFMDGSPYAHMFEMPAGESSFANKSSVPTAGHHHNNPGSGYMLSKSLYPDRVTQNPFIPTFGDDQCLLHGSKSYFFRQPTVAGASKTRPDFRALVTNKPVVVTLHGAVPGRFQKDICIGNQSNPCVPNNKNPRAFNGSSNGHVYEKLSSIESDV
Sequence of σ2 receptor (Q5BJF2 whole entry, species assumed): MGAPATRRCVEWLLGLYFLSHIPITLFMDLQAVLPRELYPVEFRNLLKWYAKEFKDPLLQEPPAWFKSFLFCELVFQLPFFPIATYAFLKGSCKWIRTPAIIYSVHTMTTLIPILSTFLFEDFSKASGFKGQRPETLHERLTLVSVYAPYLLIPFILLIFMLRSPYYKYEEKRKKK
Sequence of σ1 receptor (Q99720 whole entry): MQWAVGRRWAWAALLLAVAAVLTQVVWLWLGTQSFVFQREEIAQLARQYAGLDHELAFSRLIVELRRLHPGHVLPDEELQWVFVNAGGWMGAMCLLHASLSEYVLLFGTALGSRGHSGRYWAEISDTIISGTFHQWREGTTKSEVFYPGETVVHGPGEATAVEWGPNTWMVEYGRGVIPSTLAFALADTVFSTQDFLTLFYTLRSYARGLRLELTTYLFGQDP
Sequence of NR2B site (Q13224 27-1484, other chains not shown): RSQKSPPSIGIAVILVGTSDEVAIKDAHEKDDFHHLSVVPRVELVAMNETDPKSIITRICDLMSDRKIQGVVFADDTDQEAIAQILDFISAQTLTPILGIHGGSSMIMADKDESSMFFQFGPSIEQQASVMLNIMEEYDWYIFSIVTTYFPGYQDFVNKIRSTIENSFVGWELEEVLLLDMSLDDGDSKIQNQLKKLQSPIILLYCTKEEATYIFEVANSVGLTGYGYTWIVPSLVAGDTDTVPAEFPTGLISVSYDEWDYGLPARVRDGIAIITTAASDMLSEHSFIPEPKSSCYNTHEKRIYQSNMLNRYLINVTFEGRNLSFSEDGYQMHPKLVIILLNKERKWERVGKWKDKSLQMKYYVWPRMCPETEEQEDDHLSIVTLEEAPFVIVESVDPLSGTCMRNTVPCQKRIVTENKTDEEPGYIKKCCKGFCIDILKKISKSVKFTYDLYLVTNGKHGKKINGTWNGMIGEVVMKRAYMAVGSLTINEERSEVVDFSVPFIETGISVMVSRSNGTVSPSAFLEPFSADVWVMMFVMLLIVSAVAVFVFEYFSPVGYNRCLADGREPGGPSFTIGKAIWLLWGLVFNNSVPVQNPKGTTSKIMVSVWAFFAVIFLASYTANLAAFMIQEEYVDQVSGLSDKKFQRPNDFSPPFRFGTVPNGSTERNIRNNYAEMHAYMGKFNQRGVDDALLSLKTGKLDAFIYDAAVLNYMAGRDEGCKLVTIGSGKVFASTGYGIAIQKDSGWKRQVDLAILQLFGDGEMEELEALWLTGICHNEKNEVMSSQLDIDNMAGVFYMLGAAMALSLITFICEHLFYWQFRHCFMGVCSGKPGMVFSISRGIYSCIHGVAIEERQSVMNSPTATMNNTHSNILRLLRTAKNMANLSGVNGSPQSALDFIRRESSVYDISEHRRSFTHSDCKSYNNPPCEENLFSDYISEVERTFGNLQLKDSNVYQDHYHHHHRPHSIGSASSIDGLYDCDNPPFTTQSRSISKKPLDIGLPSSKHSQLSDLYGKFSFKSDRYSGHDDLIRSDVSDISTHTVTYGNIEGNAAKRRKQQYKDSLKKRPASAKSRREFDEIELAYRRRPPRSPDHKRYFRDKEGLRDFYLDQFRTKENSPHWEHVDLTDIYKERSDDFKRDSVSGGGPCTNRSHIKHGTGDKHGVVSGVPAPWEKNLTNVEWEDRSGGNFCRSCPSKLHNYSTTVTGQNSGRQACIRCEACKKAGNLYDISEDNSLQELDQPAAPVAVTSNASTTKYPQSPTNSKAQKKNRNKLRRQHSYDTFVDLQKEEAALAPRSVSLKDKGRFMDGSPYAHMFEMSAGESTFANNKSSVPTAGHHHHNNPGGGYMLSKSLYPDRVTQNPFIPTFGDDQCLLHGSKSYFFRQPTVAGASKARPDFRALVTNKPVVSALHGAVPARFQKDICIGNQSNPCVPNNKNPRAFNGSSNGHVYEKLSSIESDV

COc1ccc2c(c1)CCN(CCCCc1ccccc1)CC2O (stereo not drawn) [Compound 1, 7-methoxy-3-(4-phenylbutyl)-2,3,4,5-tetrahydro-1H-benzo[d]azepin-1-ol, reference compound]
inhibition at 10 µM [1]: 87.8%
Ki [2, 7]: 43.5 nM
Ki [2, 8]: 9.8 nM
inhibition at 10 µM [3]: 89.1%

COc1ccc2c(c1)CCN(CCCCc1ccc3ccccc3c1)CC2O (stereo not drawn) [Compound 2]
inhibition at 10 µM [3]: 84.4%

COc1ccc(CCCCN2CCc3cc(OC)ccc3C(O)C2)cc1 (stereo not drawn) [Compound 3]
inhibition at 10 µM [1]: 91.4%

COc1ccc2c(c1)CCN(CCCCc1ccc(C)cc1)CC2O (stereo not drawn) [Compound 4, 7-methoxy-3-(4-(4-methylphenyl)butyl)-2,3,4,5-tetrahydro-1H-benzo[d]azepin-1-ol]
inhibition at 10 µM [1]: 90.7%
Ki [2, 7]: 31.3 nM
Ki [2, 8]: 4.9 nM
affinity for NR2B [2]: in the nM range
inhibition at 10 µM [3]: 89.7%

COc1ccc2c(c1)CCN(CCCCc1ccc(Br)cc1)CC2O (stereo not drawn) [Compound 5]
inhibition at 10 µM [1]: 90%
inhibition at 10 µM [3]: 83.7%

COc1ccc2c(c1)CCN(CCCCc1ccc(F)cc1)CC2O (stereo not drawn) [Compound 6]
inhibition at 10 µM [1]: 76.9%
inhibition at 10 µM [3]: 57.9%

COc1ccc2c(c1)CCN(CCC#Cc1ccccn1)CC2O (stereo not drawn) [Compound 7]
inhibition at 10 µM [1]: 74.2%
inhibition at 10 µM [3]: 66.4%

COc1ccc2c(c1)CCN(CCC#Cc1cccc(F)n1)CC2O (stereo not drawn) [Compound 8]
inhibition at 10 µM [1]: 56.4%
inhibition at 10 µM [3]: 40.8%

COc1ccc2c(c1)CCN(CCCCc1ccc(SC)cc1)CC2O (stereo not drawn) [Compound 9, 7-methoxy-3-(4-(4-(methylthio)phenyl)butyl)-2,3,4,5-tetrahydro-1H-benzo[d]azepin-1-ol]
Ki [2, 7]: 20 nM
affinity for NR2B [2]: in the nM range
effect of pretreatment on brain radioactivity uptake [4, 9]: blocked brain radioactivity uptake in a dose-dependent manner
displacement of radioligand ([4]; rats): only slow and low displacement

OC(CN1CCC(Cc2ccc(F)cc2)CC1)c1ccc(Cl)cc1 (stereo not drawn) [Eliprodil, reference compound]
effect of pretreatment on brain radioactivity uptake ([4]; rats, 3 mg/kg i.v): blocked brain radioactivity uptake to the similar high extent
displacement of radioligand ([4]; rats): failed to displace radioligand

COc1ccc(CCN2CCN(CCCc3ccccc3)CC2)cc1OC [SA 4503, reference compound]
effect of pretreatment on brain radioactivity uptake [4, 9]: blocked brain radioactivity uptake in a dose-dependent manner

COc1ccc2c(c1)CCN(CCCCc1ccc(C)cc1)CC2O (stereo not drawn) [[^11C]NR2B-Me, 7-methoxy-3-(4-(4-methylphenyl)butyl)-2,3,4,5-tetrahydro-1H-benzo[d]azepin-1-ol]
brain radioactivity uptake [4]: 3.0 SUV
washout of brain radioactivity [4]: slow washout

COc1ccc2c(c1)CCN(CCCCc1ccc(C)cc1)C[C@@H]2O [[^11C]NR2B-MeI, (R)(−)7-methoxy-3-(4-(4-methylphenyl)butyl)-2,3,4,5-tetrahydro-1H-benzo[d]azepin-1-ol]
displacement ([4]; PET imaging in rats): 65%
preblocking ([4]; PET imaging in rats): 95%
reversibility of binding ([4]; PET imaging in rats): reversible binding
washout of brain radioactivity [4]: slow washout
brain radioactivity uptake (in words) ([4]; rats, within 5 minutes): very high
Normalized Total Volume of Distribution (VT/fp) ([5]; Amygdala, Baseline Ave.): 3171.1 ml/cm^3
Normalized Total Volume of Distribution (VT/fp) ([5]; Amygdala, Co101244 block): 515.5 ml/cm^3
Normalized Total Volume of Distribution (VT/fp) ([5]; Amygdala, Self-block): 405.4 ml/cm^3
Normalized Total Volume of Distribution (VT/fp) ([5]; Cerebellum, Baseline Ave.): 1465.9 ml/cm^3
Normalized Total Volume of Distribution (VT/fp) ([5]; Cerebellum, Co101244 block): 426.4 ml/cm^3
Normalized Total Volume of Distribution (VT/fp) ([5]; Cerebellum, Self-block): 348.6 ml/cm^3
Normalized Total Volume of Distribution (VT/fp) ([5]; Cingulate Cortex, Baseline Ave.): 2388.9 ml/cm^3
Normalized Total Volume of Distribution (VT/fp) ([5]; Cingulate Cortex, Co101244 block): 523.3 ml/cm^3
Normalized Total Volume of Distribution (VT/fp) ([5]; Cingulate Cortex, Self-block): 400.0 ml/cm^3
Normalized Total Volume of Distribution (VT/fp) ([5]; Frontal Cortex, Baseline Ave.): 2254.5 ml/cm^3
Normalized Total Volume of Distribution (VT/fp) ([5]; Frontal Cortex, Co101244 block): 562.0 ml/cm^3
Normalized Total Volume of Distribution (VT/fp) ([5]; Frontal Cortex, Self-block): 451.4 ml/cm^3
Normalized Total Volume of Distribution (VT/fp) ([5]; Hippocampus, Baseline Ave.): 2389.6 ml/cm^3
Normalized Total Volume of Distribution (VT/fp) ([5]; Hippocampus, Co101244 block): 465.1 ml/cm^3
Normalized Total Volume of Distribution (VT/fp) ([5]; Hippocampus, Self-block): 370.3 ml/cm^3
Normalized Total Volume of Distribution (VT/fp) ([5]; Insula, Baseline Ave.): 2314.2 ml/cm^3
Normalized Total Volume of Distribution (VT/fp) ([5]; Insula, Co101244 block): 542.6 ml/cm^3
Normalized Total Volume of Distribution (VT/fp) ([5]; Insula, Self-block): 408.1 ml/cm^3
Normalized Total Volume of Distribution (VT/fp) ([5]; Occipital Lobe, Baseline Ave.): 1676.3 ml/cm^3
Normalized Total Volume of Distribution (VT/fp) ([5]; Occipital Lobe, Co101244 block): 484.5 ml/cm^3
Normalized Total Volume of Distribution (VT/fp) ([5]; Occipital Lobe, Self-block): 402.7 ml/cm^3
Normalized Total Volume of Distribution (VT/fp) ([5]; Parietal Lobe, Baseline Ave.): 2001.4 ml/cm^3
Normalized Total Volume of Distribution (VT/fp) ([5]; Parietal Lobe, Co101244 block): 538.8 ml/cm^3
Normalized Total Volume of Distribution (VT/fp) ([5]; Parietal Lobe, Self-block): 440.5 ml/cm^3
Normalized Total Volume of Distribution (VT/fp) ([5]; Striatum, Baseline Ave.): 1965.2 ml/cm^3
Normalized Total Volume of Distribution (VT/fp) ([5]; Striatum, Co101244 block): 573.6 ml/cm^3
Normalized Total Volume of Distribution (VT/fp) ([5]; Striatum, Self-block): 437.8 ml/cm^3
Normalized Total Volume of Distribution (VT/fp) ([5]; Temporal Lobe, Baseline Ave.): 1956.8 ml/cm^3
Normalized Total Volume of Distribution (VT/fp) ([5]; Temporal Lobe, Co101244 block): 476.7 ml/cm^3
Normalized Total Volume of Distribution (VT/fp) ([5]; Temporal Lobe, Self-block): 373.0 ml/cm^3
Normalized Total Volume of Distribution (VT/fp) ([5]; Thalamus, Baseline Ave.): 2385.1 ml/cm^3
Normalized Total Volume of Distribution (VT/fp) ([5]; Thalamus, Co101244 block): 596.9 ml/cm^3
Normalized Total Volume of Distribution (VT/fp) ([5]; Thalamus, Self-block): 445.9 ml/cm^3
Normalized Total Volume of Distribution (VT/fp) ([5]; Whole Brain, Baseline Ave.): 1959.7 ml/cm^3
Normalized Total Volume of Distribution (VT/fp) ([5]; Whole Brain, Co101244 block): 511.6 ml/cm^3
binding potential of whole brain, BPND ([5]; whole brain, Co101244): 3.8
Normalized Total Volume of Distribution (VT/fp) ([5]; whole brain, self-block): 408.1 ml/cm^3
time after radioligand injection from which V showed time stability [6]: ≥ 80 min
binding potential of whole brain, BPND ([6]; whole brain, self-block): 4.6

COc1ccc2c(c1)CCN(CCCCc1ccc(SC)cc1)CC2O (stereo not drawn) [[^11C]NR2B-SMe, [^11C] 7-methoxy-3-(4-(4-(methylthio)phenyl)butyl)-2,3,4,5-tetrahydro-1H-benzo[d]azepin-1-ol]
brain radioactivity uptake [4]: 3.5 SUV
washout of brain radioactivity [4]: very low washout

CC(C(O)c1ccc(O)cc1)N1CCC(Cc2ccccc2)CC1 (stereo not drawn) [ifendopril, reference compound]
effect of pretreatment on brain radioactivity uptake ([4]; rats, 3 mg/kg i.v): blocked brain radioactivity uptake to the similar high extent

— patent US20210094920A1, “NR2B LIGANDS; METHOD OF MAKING; AND USE THEREOF” (THE UNITED STATES OF AMERICA, AS REPRESENTED BY THE …, priority 2018, published 2021)
